Results reported in the supplement of paper PMC10307832.

Experiments:
Assay in all cases: relative viability (nuclei count vs DMSO), 5 days (fraction); higher = more cells survive
[1] = compound: C1CNCCC1C2=CC(=NN2)C3=CC=NC=C3 + CCNC(=O)c1noc(-c2cc(C(C)C)c(O)cc2O)c1-c1ccc(CN2CCOCC2)cc1 [Luminespib] (partner 0.01 µM)
In short: (§1)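 Lung cancer cell lines in 1536-well plates were dosed by pin tool the day after seeding, either with one drug alone or with a fixed anchor-drug dose plus five library-drug doses (not always all listed) in √10 steps. After 5 days, cells were fixed and their nuclei stained in one step (final 0.05% Triton X-100, 1% formaldehyde, 1 ug/ml Hoechst), then counted on 4× images. Relative viability is the nuclei count in treated wells divided by that in vehicle wells. Values are medians of duplicate plates.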

[2] = compound: C[C@@H](N)c1ccc(C(=O)Nc2ccnc3[nH]ccc23)cc1 + Cc1cc(Nc2cc(N3CCN(C)CC3)nc(Sc3ccc(NC(=O)C4CC4)cc3)n2)n[nH]1 [Tozasertib] (partner 0.1 µM)
In short: as §1

[3] = compound: C[C@@H](N)c1ccc(C(=O)Nc2ccnc3[nH]ccc23)cc1 + N=C(N)NC(=N)NCCc1ccccc1 [Phenformin] (partner 250 µM)
In short: as §1

[4] = compound: C[C@@H](N)c1ccc(C(=O)Nc2ccnc3[nH]ccc23)cc1 + NC(=O)Nc1cc(-c2cccc(F)c2)sc1C(=O)N[C@H]1CCCNC1 [AZD7762] (partner 0.2 µM)
In short: as §1

Row | Cell Line | relative viability ([1]; first compound 0.08 µM) | relative viability ([1]; first compound 0.8 µM) | relative viability ([1]; first compound 2.53 µM) | relative viability ([1]; first compound 8 µM) | relative viability ([2]; first compound 0.04 µM) | relative viability ([2]; first compound 0.1265 µM) | relative viability ([2]; first compound 0.4 µM) | relative viability ([2]; first compound 1.265 µM) | relative viability ([2]; first compound 4 µM) | relative viability ([3]; first compound 0.04 µM) | relative viability ([3]; first compound 0.1265 µM) | relative viability ([3]; first compound 0.4 µM) | relative viability ([3]; first compound 1.265 µM) | relative viability ([3]; first compound 4 µM) | relative viability ([4]; first compound 0.04 µM) | relative viability ([4]; first compound 0.1265 µM) | relative viability ([4]; first compound 0.4 µM) | relative viability ([4]; first compound 1.265 µM) | relative viability ([4]; first compound 4 µM)
1 | NCI-H1975 | 0.166 | 0.214 | 0.193 | 0.254 | 0.8 | 0.712 | 0.729 | 0.696 | 0.642 | 0.359 | 0.405 | 0.39 | 0.347 | 0.255 | 0.593 | 0.613 | 0.688 | 0.513 | 0.434
2 | NCI-H1993 | 0.748 | 0.918 | 0.79 | 0.981 | 0.579 | 0.591 | 0.56 | 0.639 | 0.6 | 0.597 | 0.501 | 0.528 | 0.502 | 0.547 | 0.867 | 0.817 | – | 1.04 | 1.26
3 | NCI-H2085 | 0.412 | 0.38 | 0.498 | 0.435 | 0.865 | 0.772 | 0.694 | – | 0.722 | 0.628 | 0.77 | 0.778 | 0.359 | 0.636 | 0.947 | 0.914 | 0.96 | 1.13 | 1.09
4 | NCI-H2087 | 0.145 | 0.178 | 0.281 | 0.254 | 0.324 | 0.235 | 0.274 | – | 0.181 | 0.497 | 0.571 | 0.554 | – | 0.557 | 1.29 | 1.06 | 1.07 | 1.06 | 1.08
5 | NCI-H2126 | 0.813 | 0.975 | 0.959 | 0.917 | 0.92 | 0.885 | 0.877 | 0.921 | 0.854 | 0.588 | 0.558 | 0.592 | 0.505 | 0.502 | 1.01 | 1.04 | 1.17 | 0.982 | 1.12
6 | NCI-H2170 | 0.534 | 0.739 | 0.737 | 0.567 | 0.719 | 0.663 | 0.784 | 0.699 | 0.636 | 0.401 | 0.442 | 0.492 | 0.353 | 0.38 | 0.972 | 0.935 | 1.05 | 0.827 | 0.832
7 | NCI-H2342 | 0.716 | 0.781 | 0.888 | 0.857 | 0.496 | 0.382 | 0.493 | 0.495 | 0.525 | 0.718 | 0.731 | 0.676 | 0.718 | 0.622 | 0.508 | 0.643 | 0.534 | 0.611 | 0.584
8 | NCI-H2347 | 0.366 | 0.5 | 0.511 | 0.564 | 0.466 | 0.64 | 0.592 | – | 0.706 | 0.502 | 0.532 | 0.546 | – | 0.584 | 0.825 | 0.603 | 0.973 | 0.878 | 1.01
9 | NCI-H2405 | 0.616 | 0.584 | 0.875 | 0.544 | 0.858 | 0.832 | 0.759 | 0.507 | 0.35 | 0.176 | 0.449 | 0.369 | 0.264 | 0.218 | – | 0.702 | 0.438 | 0.253 | 0.179
